Measurements: patent US4083994A, “Choleretics” (Hisamitsu Pharmaceutical Co., Inc., priority 1975, dated 1978)

Key:
bile secretion [1] = test: Bile secretion test in rats; format: in vivo, male Wistar rats; details: rat, oral, volume in 1 h before administration = 100%
Procedure: Male Wistar rats weighing 200-210 g were fasted overnight and laparotomized under urethane anesthesia(Subcutaneous injection at a dose of 1.5 g/kg). A polyethylene tube was inserted into the common bile duct. The bile was collected for one hour from 30 minutes after the operation. Subsequently, the animals were given orally the test drugs, each 50 mg of which was suspended in 1 ml of 5% gum arabic aqueous solution. The bile was collected for 5 hours after the drug administration. The volume of the bile secreted at hourly intervals after the drug administration was expressed in %, defining the volume secreted for one hour before the drug administration as 100%, as shown in Table 1.
About 500 mg of p-menth-1-ene-8,9-diol were weighed accurately, and suspended in 10 ml of 5% gum arabic aqueous solution. […] Male rats of Wistar strain weighing 200 g were fasted overnight, anesthetized by subcutanous injection of 0.3 g of urethane and laparotomized. A polyethylene tube was inserted into the common bile duct. The bile was collected for one hour from 30 minutes after the operation. […]
About 500 mg of 9-acetoxy-p-menth-1-en-8-ol was weighed accurately and suspended in 10ml of 5% gum arabic aqueous solution. […] Male rats of Wistar strain weighing about 210 g were fasted overnight and anesthetized by subcutaneous injection of 0.32 g of urethane and then laparotomized. A polyethylene tube was inserted into the common bile duct, and the bile secreted through the duct was collected for one hour from 30 minutes after the operation. Subsequently, the choleretic of the present invention was administered orally in a volume of 1.05 ml (250 mg/kg).

bile secretion [2] = test: Bile secretion test in dogs; format: in vivo, male mongrel dogs; details: into duodenum; for Bile volume secreted after administration: dog, volume in 1 h before administration = 100%; for Volume of bile secreted relative to one hour before administration: one dog (7.6 kg)
Procedure: Male mongrel dogs weighing approximately 8 kg were anesthetized with intravenous injection of […] of pentobarbital and further with subcutaneous injection of urethane at a dose of 1.0 g/kg and laparotomized. One canula was inserted into the common bile duct and directed to the liver for collection of the bile, and the other canula was inserted into the duodenum for the drug administration. The cholecystic duct was ligated and the gallbladder bile was aspirated with an injection syringe. The operation was finished by suture of the peritoneum. The bile was collected for one hour from 30 minutes after the operation. The animals were given the test drugs, each 50 mg of which was suspended in 1 ml of 5% gum arabic aqueous solution, through the canula for the drug administration. The bile was collected at hourly intervals for 6 hours after the drug administration. Defining the volume of the bile secreted for one hour before the drug administration as 100%, the volume secreted at hourly intervals after the drug administration was expressed in %, as shown in Table 2.
The mean volume secreted for one hour before the drug administration was 1798 μl.
This suspension was used as a choleretic of the present invention. A male mongrel dog weighing 8.8 kg was fasted overnight and anesthetized by subcutaneous injection of 1.0 mg/kg of urethane and laparotomized. One canula was inserted into the common bile duct and directed to the liver for collection of the bile, and the other canula was also inserted into the duodenum for the drug administration. Subsequently, the cholecystic duct was ligated and the gallbladder bile was aspirated with an injection syringe. The operation was finished after suturing the peritoneum. The bile was collected for one hour from 30 minutes after the operation, and subsequently, 44 ml of the test drug prepared above (250 mg/kg) was given through the canula for the drug administration. The volume of the bile secreted for the first, second and third one hour after the drug administration were 2.2, 2.1 and 1.9 times larger, respectively, than that secreted for one hour before the drug administration.
About 2.5 g of 9-propionyloxy-p-menth-1-en-8-ol was weighed accurately and suspended in 50 ml of 5% gum arabic aqueous solution. This suspension was used as a choleretic of the present invention. A male mongrel dog weighing 7.6 kg was fasted overnight and anesthetized by subcutaneous injection of 1.0 mg/kg of urethane and then laparotomized. One canula was inserted into the common bile duct and directed to the liver for collection of the bile, and the other canula into the duodenum for the drug administration. Subsequently, the cholecystic duct was ligated and the gallbladder bile was aspirated with an injection syringe. The operation was finished by suturing the peritoneum. The bile was collected for one hour from 30 minutes after the operation, and 50 ml (330 mg/kg) of the test drug prepared above was administered through the canula for the drug administration. The volume of the bile secreted for the first, second and third one hour after the drug administration was 3.2, 5.0 and 4.7 times larger, respectively, than that secreted for one hour before the drug administration.

[3] = Acute toxicity test in mice; details: mouse, in vivo, oral, parentheses: 95% confidence limit
Procedure: The test drugs were suspended in 5% gum arabic aqueous solution to make 50 mg/ml, and given orally male mice of ddY strain weighing 18-22 g and male rats of Wistar strain weighing 95-120 g. The LD50 values were calculated from the mortality of the animals that ensued during the 72 hours following the drug administration

CCC(O)c1ccccc1 (racemic) [Felicur, phenylpropanol, reference compound]
Bile volume secreted after administration (bile secretion [1]; 250 mg/kg, 0-1 hr): 204% | Bile volume secreted after administration (bile secretion [1]; 250 mg/kg, 1-2 hr): 172% | Bile volume secreted after administration (bile secretion [1]; 250 mg/kg, 2-3 hr): 138% | Bile volume secreted after administration (bile secretion [1]; 250 mg/kg, 3-4 hr): 108% | Bile volume secreted after administration (bile secretion [1]; 250 mg/kg, 4-5 hr): 88% | Bile volume secreted after administration (bile secretion [2]; 50 mg/kg, 0-1 hr): 231% | Bile volume secreted after administration (bile secretion [2]; 50 mg/kg, 1-2 hr): 230% | Bile volume secreted after administration (bile secretion [2]; 50 mg/kg, 2-3 hr): 188% | Bile volume secreted after administration (bile secretion [2]; 50 mg/kg, 3-4 hr): 147%

CC(C)[C@@H]1CC[C@@H](C)C[C@H]1O [1-Menthol, 1-menthol, reference compound]
Bile volume secreted after administration (bile secretion [1]; 80 mg/kg, 0-1 hr): 134% | Bile volume secreted after administration (bile secretion [1]; 80 mg/kg, 1-2 hr): 114% | Bile volume secreted after administration (bile secretion [1]; 80 mg/kg, 2-3 hr): 100% | Bile volume secreted after administration (bile secretion [1]; 80 mg/kg, 3-4 hr): 95% | Bile volume secreted after administration (bile secretion [1]; 80 mg/kg, 4-5 hr): 89% | Bile volume secreted after administration (bile secretion [1]; 230 mg/kg, 0-1 hr): 139% | Bile volume secreted after administration (bile secretion [1]; 230 mg/kg, 1-2 hr): 137% | Bile volume secreted after administration (bile secretion [1]; 230 mg/kg, 2-3 hr): 133% | Bile volume secreted after administration (bile secretion [1]; 230 mg/kg, 3-4 hr): 117% | Bile volume secreted after administration (bile secretion [1]; 230 mg/kg, 4-5 hr): 111% | Bile volume secreted after administration (bile secretion [1]; 750 mg/kg, 0-1 hr): 152% | Bile volume secreted after administration (bile secretion [1]; 750 mg/kg, 1-2 hr): 143% | Bile volume secreted after administration (bile secretion [1]; 750 mg/kg, 2-3 hr): 138% | Bile volume secreted after administration (bile secretion [1]; 750 mg/kg, 3-4 hr): 122% | Bile volume secreted after administration (bile secretion [1]; 750 mg/kg, 4-5 hr): 111%

CCC(=O)OCC(C)(O)C1CC=C(C)CC1 (stereo not drawn) [9-Propionyloxy-p-menth-1-en-8-ol, 9-propionyloxy-p-menth-1-en-8-ol]
LD50 at 72 h [3]: > 4000 mg/kg | Bile volume secreted after administration (bile secretion [1]; 110 mg/kg, 0-1 hr): 135% | Bile volume secreted after administration (bile secretion [1]; 110 mg/kg, 1-2 hr): 117% | Bile volume secreted after administration (bile secretion [1]; 110 mg/kg, 2-3 hr): 100% | Bile volume secreted after administration (bile secretion [1]; 110 mg/kg, 3-4 hr): 87% | Bile volume secreted after administration (bile secretion [1]; 110 mg/kg, 4-5 hr): 74% | Bile volume secreted after administration (bile secretion [1]; 330 mg/kg, 0-1 hr): 147% | Bile volume secreted after administration (bile secretion [1]; 330 mg/kg, 1-2 hr): 139% | Bile volume secreted after administration (bile secretion [1]; 330 mg/kg, 2-3 hr): 118% | Bile volume secreted after administration (bile secretion [1]; 330 mg/kg, 3-4 hr): 104% | Bile volume secreted after administration (bile secretion [1]; 330 mg/kg, 4-5 hr): 86% | Bile volume secreted after administration (bile secretion [1]; 990 mg/kg, 0-1 hr): 176% | Bile volume secreted after administration (bile secretion [1]; 990 mg/kg, 1-2 hr): 174% | Bile volume secreted after administration (bile secretion [1]; 990 mg/kg, 2-3 hr): 153% | Bile volume secreted after administration (bile secretion [1]; 990 mg/kg, 3-4 hr): 130% | Bile volume secreted after administration (bile secretion [1]; 990 mg/kg, 4-5 hr): 120% | Bile volume secreted after administration (bile secretion [2]; 330 mg/kg, 0-1 hr): 322% | Bile volume secreted after administration (bile secretion [2]; 330 mg/kg, 1-2 hr): 497% | Bile volume secreted after administration (bile secretion [2]; 330 mg/kg, 2-3 hr): 472% | Bile volume secreted after administration (bile secretion [2]; 330 mg/kg, 3-4 hr): 402% | Bile volume secreted after administration (bile secretion [2]; 330 mg/kg, 4-5 hr): 367% | Bile volume secreted after administration (bile secretion [2]; 330 mg/kg, 5-6 hr): 324% | Volume of bile secreted relative to one hour before administration (bile secretion [2]; 330 mg/kg, first hour): 3.2 times | Volume of bile secreted relative to one hour before administration (bile secretion [2]; 330 mg/kg, second hour): 5.0 times | Volume of bile secreted relative to one hour before administration (bile secretion [2]; 330 mg/kg, third hour): 4.7 times

C=C(C)C1CC=C(C)CC1 (stereo not drawn) [p-Mentha-1,8-diene, p-mentha-1,8-diene]
Bile volume secreted after administration (bile secretion [1]; 80 mg/kg, 0-1 hr): 101% | Bile volume secreted after administration (bile secretion [1]; 80 mg/kg, 1-2 hr): 100% | Bile volume secreted after administration (bile secretion [1]; 80 mg/kg, 2-3 hr): 100% | Bile volume secreted after administration (bile secretion [1]; 80 mg/kg, 3-4 hr): 94% | Bile volume secreted after administration (bile secretion [1]; 80 mg/kg, 4-5 hr): 91% | Bile volume secreted after administration (bile secretion [1]; 250 mg/kg, 0-1 hr): 104% | Bile volume secreted after administration (bile secretion [1]; 250 mg/kg, 1-2 hr): 108% | Bile volume secreted after administration (bile secretion [1]; 250 mg/kg, 2-3 hr): 109% | Bile volume secreted after administration (bile secretion [1]; 250 mg/kg, 3-4 hr): 108% | Bile volume secreted after administration (bile secretion [1]; 250 mg/kg, 4-5 hr): 104% | Bile volume secreted after administration (bile secretion [1]; 750 mg/kg, 0-1 hr): 111% | Bile volume secreted after administration (bile secretion [1]; 750 mg/kg, 1-2 hr): 125% | Bile volume secreted after administration (bile secretion [1]; 750 mg/kg, 2-3 hr): 128% | Bile volume secreted after administration (bile secretion [1]; 750 mg/kg, 3-4 hr): 131% | Bile volume secreted after administration (bile secretion [1]; 750 mg/kg, 4-5 hr): 128% | Bile volume secreted after administration (bile secretion [2]; 250 mg/kg, 0-1 hr): 220% | Bile volume secreted after administration (bile secretion [2]; 250 mg/kg, 1-2 hr): 213% | Bile volume secreted after administration (bile secretion [2]; 250 mg/kg, 2-3 hr): 185% | Bile volume secreted after administration (bile secretion [2]; 250 mg/kg, 3-4 hr): 110% | Bile volume secreted after administration (bile secretion [2]; 250 mg/kg, 4-5 hr): 85%
